Measurements: publication PMC7822874, “Chemoprotective antimalarials identified through quantitative high-throughput screening of Plasmodium blood and liver stage parasites” (Scientific Reports, 2021)
Like-named read-outs stand apart in the source and are kept apart here.

Assays:
[1] = test system: P. falciparum Dd2 Cytb G131S; test: SYBR Green ABS proliferation assay, NCGC00374598 selected clone C11; format: cell-based, Plasmodium falciparum; conditions: Plasmodium falciparum
Description: (§1) As resistance selection studies implicated the parasite cytochrome bc1 complex in mediating reduced parasite susceptibility to both NCGC00473217 and NCGC00374598, we leveraged these drug-selected parasites to test for altered drug response to a panel of antimalarial compounds.
(§2) The P. falciparum parasite Dd2 line was cultured in vitro using standard conditions. […] Tissue culture flasks and assay plates were incubated at 37 °C under a gas mixture of 5% CO2, 5% O2 and 90% N2. […] Significant differences were assessed using two-sided Student’s t-tests. All HTS assays were stopped and read at 72 h. Percent response values represent relative growth as judged by SYBR Green-I fluorescence intensity values normalized to controls.
(§3) Fresh uninfected RBCs (0.5% hematocrit) were added on day 7 and media was changed every other day. […] Resistant parasites were maintained under drug media at a volume of 50 mL until a high parasitemia (> 5%) was achieved. Aliquots of the bulk resistant cultures were frozen in cryovials before cloning by limiting dilution in 96-well plates (seeded at 0.25 or 0.5 parasites/well)[70]. After 3 weeks of cloning, we screened for positive wells by flow cytometry with SYBR Green-stained cells. […] Parasites were harvested by saponin lysis at the trophozoite stage and genomic DNA was extracted using the QIAamp DNA Blood Midi Kit (Qiagen, Germantown, MD)[71].

[2] = test system: P. falciparum Dd2 Cytb F123L; test: SYBR Green ABS proliferation assay, NCGC00473217 selected clone G08; format: cell-based, Plasmodium falciparum; set-up: log AC50, mean: unit: log10(M); conditions: for AC50: Plasmodium falciparum; for log AC50, mean: cytochrome b mutant line
Description: as §1, §2, §3

[3] = test system: P. falciparum Dd2 (clone B2) asexual blood stage parasites; test: P. falciparum Dd2 asexual blood stage SYBR Green-I 72 h proliferation assay (qHTS); format: cell-based, Plasmodium falciparum; conditions: Plasmodium falciparum, DD2, Dd2 parental; Hill fit, averaged from three independent replicates; top concentration 29 µM; read-out: Average AC50 (Log[M]), Dd2 (converted)
[4] = test system: P. falciparum Dd2 Cytb A122D; test: SYBR Green ABS proliferation assay, NCGC00473217 selected clone F12; format: cell-based, Plasmodium falciparum; conditions: Plasmodium falciparum
Description: as §1, §2, §3

[5] = test system: P. falciparum Dd2 Cytb V259L; test: SYBR Green ABS proliferation assay, NCGC00473217 selected clone F06; format: cell-based, Plasmodium falciparum; conditions: Plasmodium falciparum, DD2, […]; averaged from three independent replicates; top concentration 29 µM; read-out: Average AC50 (Log[M]), NCGC00473217 clone F06 (Cytb V259L) (converted)
Description: as §1, §2, §3

[6] = test system: Plasmodium falciparum Dd2 asexual blood stage parasites; test: microbe, parasite or virus in culture; set-up: species or system Plasmodium falciparum Dd2 in human erythrocytes; single determination (one 11-point concentration-response curve); conditions: Plasmodium falciparum, DD2, Erythrocyte, 72 h; read-out: AC50
[7] = test system: luciferase-expressing P. berghei liver stage parasites in HepG2 cells; test: Inhibition of liver-stage development assay (ILSDA), Method 2 (WRAIR, 96-well); format: cell-based, Plasmodium berghei; conditions: P. berghei liver stage, Method 2, dose response
[8] = test system: P. berghei-ANKA-GFP-LucCON liver stage parasites in HepG2-A16-CD81EGFP cells; test: P. berghei liver stage Pb-Luc assay, Method 1 (UCSD, 1536-well); format: cell-based, Plasmodium berghei; conditions: Method 1; for AC50: Plasmodium berghei
[9] = DD2, […], averaged from three independent replicates, top concentration 29 µM, read-out: Average AC50 (Log[M]), NCGC00374598 clone C11 (Cytb G131S) (converted)
[10] = DD2, […], averaged from three independent replicates, top concentration 29 µM, read-out: Average AC50 (Log[M]), NCGC00473217 clone G08 (Cytb F123L) (converted)
[11] = DD2, […], averaged from three independent replicates, top concentration 29 µM, read-out: Average AC50 (Log[M]), NCGC00473217 clone F12 (Cytb A122D) (converted)
[12] = DD2, cytochrome b mutant line, fifth value triple, c15, […], read-out: log AC50, mean (converted)

Structure (SMILES)	AC50 [1, 9]	AC50 [2, 10]	AC50 [3]	AC50 [4, 11]	AC50 [5]	also measured
CCCN1C(CC(C)C)=N[S+](=O)([O-])c2cc(NC(=O)c3ccc(F)c(F)c3)ccc21 [NCGC00531540-01]	7.96e-07 M	7.1e-07 M	5.22e-06 M	3.99e-07 M		
CCCN1C(CC(C)C)=N[S+](=O)([O-])c2cc(NC(=O)COC)ccc21 [NCGC00521098-01]	3.56e-06 M		8.93e-06 M	1.12e-05 M	1.68e-05 M	
N[S+](=O)([O-])c1cc2c(cc1Cl)NC(C(Cl)Cl)N[S+]2(=O)[O-] (stereo not shown) [NCGC00018302-09]		5.02e-06 M		6.32e-07 M	1.42e-06 M	
O=c1[nH]c(N2CCOCC2)nc2c1CCN(Cc1ccc(Cl)cc1F)CC2 [NCGC00440653-01]						AC50 [2, 12]: 2.16e-06 M; log AC50, mean ([2]; fifth value triple, c15, […]): -5.475; AC50 [6]: 3350 nM; Activity direction (Decrease / Inactive) [7]: Inactive; Max Resp (signal direction of the dose response) ([8]; Decrease = decreasing P. berghei viability with dose, Increase = increasing signal, Inactive = no dose response): Inactive
CCCN1C(CC(C)C)=N[S+](=O)([O-])c2cc(NC(=O)c3ccc(-c4ccccc4)o3)ccc21 [NCGC00521160-01]		5.02e-06 M		3.17e-06 M	6.32e-06 M	
CC(C)CC1=N[S+](=O)([O-])c2cc(NC(=O)c3cccs3)ccc2N1C [NCGC00521057-01]	2.24e-07 M	1.89e-07 M	1.85e-06 M	1e-06 M		
O=c1[nH]c(N2CCOCC2)nc2c1CCN(Cc1cc(Cl)ccc1F)CC2 [NCGC00440651-01]						AC50 [2, 12]: 2.16e-06 M; log AC50, mean ([2]; fifth value triple, c15, […]): -5.575; AC50 [6]: 2370 nM; Activity direction (Decrease / Inactive) [7]: Inactive; AC50 ([8]; Hill fit, 50% of maximum activity response, read-out: AC50): 2820 nM; AC50 ([8]; log10 of molar AC50 from Hill fit, read-out: Log AC50 (converted)): 2820 nM
CCCN1C(CC(C)C)=N[S+](=O)([O-])c2cc(NC(=O)c3ccsc3)ccc21 [NCGC00521157-01]	2.08e-06 M		2e-06 M	8.93e-07 M	1.34e-06 M	
NS(=O)(=O)c1cc2c(cc1Cl)NC(C1CC3C=CC1C3)NS2(=O)=O (stereo not shown) [NCGC00015288-06]		5.64e-07 M		7.1e-07 M		
CCCN1C(CC(C)C)=N[S+](=O)([O-])c2cc([N+](=O)[O-])ccc21 [NCGC00510308-01]		2.52e-09 M			1.59e-05 M	
CCCN1C(CC(C)C)=N[S+](=O)([O-])c2cc(NC(=O)c3cnon3)ccc21 [NCGC00521034-01]		1.59e-06 M			1e-05 M	
CCCN1C(CC(C)C)=N[S+](=O)([O-])c2cc(N[S+](=O)([O-])c3ccc(F)cc3)ccc21 [NCGC00521879-01]		6.32e-07 M				
CC(C)CC1=N[S+](=O)([O-])c2cc(NC(=O)c3cccs3)ccc2N1 [NCGC00532401-01]						AC50 ([1]; DD2, cytochrome b mutant line, second value triple, c6, […], read-out: log AC50, mean (converted)): 2.82e-07 M; AC50 [2, 12]: 2.52e-09 M; AC50 ([4]; DD2, cytochrome b mutant line, fourth value triple, c12, […], read-out: log AC50, mean (converted)): 7.1e-06 M
CCCN1C(CC(C)C)=N[S+](=O)([O-])c2cc(NC(=O)c3ccc(OC(F)(F)F)cc3)ccc21 [NCGC00531538-01]		1.78e-05 M	1.26e-06 M	1.59e-06 M		
CCCN1C(CC(C)C)=N[S+](=O)([O-])c2cc(NC(=O)c3cncs3)ccc21 [NCGC00521052-01]	6.58e-07 M		4.84e-06 M	1.72e-06 M	5.86e-06 M	
CCCN1C(CC(C)C)=N[S+](=O)([O-])c2cc(NC(=O)c3ccc(OC)cc3)ccc21 [NCGC00531533-02]	1.47e-06 M	1e-06 M	2.52e-06 M		1e-06 M	
N[S+](=O)([O-])c1cc2c(cc1Cl)NCN[S+]2(=O)[O-] [NCGC00015508-23]	8.93e-07 M		7.1e-07 M	1.78e-07 M	5.64e-07 M	
CCCN1C(CC(C)C)=N[S+](=O)([O-])c2cc(NC(=O)c3cc4ccccc4o3)ccc21 [NCGC00521880-01]		1.34e-06 M		3.99e-06 M	4.48e-07 M	
